Measurements reported in the NIST ThermoML archive (doi:10.1016/j.tca.2006.01.020).

Assay: molar heat capacity at constant pressure
Conditions: 101.33 kPa, Crystal, Small (less than 1 g) adiabatic calorimetry

[Ba+2].[Ce+4].[O-2].[O-2].[O-2] [barium cerium(IV) oxide]
Conditions	molar heat capacity at constant pressure [J/K/mol]
1.721 K	0.00113
1.726 K	0.00106
1.733 K	0.00113
1.761 K	0.00102
1.781 K	0.00108
1.833 K	0.00116
1.87 K	0.00103
1.904 K	0.00103
1.995 K	0.00167
2.042 K	0.00152
2.096 K	0.00138
2.134 K	0.00153
2.178 K	0.0019
2.817 K	0.00505
2.844 K	0.00578
2.877 K	0.0056
3.154 K	0.00691
3.175 K	0.00697
3.25 K	0.00798
3.258 K	0.00871
3.318 K	0.00829
3.349 K	0.00913
3.382 K	0.00944
3.471 K	0.0093
3.57 K	0.01
3.673 K	0.0107
3.834 K	0.0118
3.983 K	0.0132
4.14 K	0.0143
4.241 K	0.0157
4.384 K	0.0171
4.454 K	0.0187
4.608 K	0.0193
4.68 K	0.0211
4.756 K	0.0223
4.835 K	0.0232
4.911 K	0.0245
4.992 K	0.026
5.071 K	0.0274
5.152 K	0.0284
5.227 K	0.0294
5.296 K	0.0316
5.375 K	0.0321
5.441 K	0.0353
5.536 K	0.0361
5.614 K	0.0388
5.697 K	0.0405
5.78 K	0.0425
5.861 K	0.0448
5.946 K	0.0466
6.034 K	0.0491
6.119 K	0.0516
6.209 K	0.0536
6.297 K	0.0571
6.366 K	0.057
6.457 K	0.0616
6.548 K	0.0639
6.647 K	0.0675
6.739 K	0.0705
6.841 K	0.0743
6.93 K	0.0778
7.04 K	0.0831
7.13 K	0.0857
7.24 K	0.0907
7.34 K	0.0935
7.45 K	0.0993
7.55 K	0.103
7.66 K	0.11
7.76 K	0.115
7.89 K	0.123
8 K	0.129
8.13 K	0.138
8.25 K	0.145
8.38 K	0.156
8.5 K	0.164
8.64 K	0.176
8.77 K	0.185
8.91 K	0.201
9.04 K	0.209
9.17 K	0.221
9.32 K	0.241
9.46 K	0.251
9.59 K	0.266
9.75 K	0.289
9.92 K	0.309
10 K	0.318
10.08 K	0.328
10.23 K	0.348
10.4 K	0.377
10.58 K	0.4
10.76 K	0.433
10.94 K	0.461
11.1 K	0.489
11.3 K	0.534
11.48 K	0.561
11.68 K	0.61
11.89 K	0.651
12.09 K	0.7
12.29 K	0.744
12.5 K	0.806
12.72 K	0.859
12.93 K	0.919
13.15 K	0.983
13.37 K	1.05
13.59 K	1.12
13.82 K	1.2
14.05 K	1.28
14.28 K	1.36
14.51 K	1.45
14.74 K	1.54
14.97 K	1.63
15.21 K	1.73
15.44 K	1.83
15.68 K	1.93
15.91 K	2.05
16.15 K	2.16
16.38 K	2.26
16.6 K	2.38
16.84 K	2.51
17.09 K	2.62
17.32 K	2.75
17.55 K	2.89
17.79 K	3.02
18.03 K	3.16
18.27 K	3.3
18.52 K	3.44
18.76 K	3.58
19 K	3.73
19.23 K	3.89
19.47 K	4.05
19.73 K	4.19
19.98 K	4.35
20 K	4.411
20.2 K	4.52
20.44 K	4.68
20.69 K	4.84
20.94 K	5
21.17 K	5.2
21.41 K	5.36
21.66 K	5.54
21.91 K	5.7
22.16 K	5.88
22.39 K	6.07
22.63 K	6.26
22.88 K	6.44
23.14 K	6.62
23.38 K	6.81
23.62 K	7
23.86 K	7.2
24.1 K	7.39
24.36 K	7.58
24.61 K	7.76
24.86 K	7.96
25.1 K	8.19
25.34 K	8.4
25.6 K	8.57
25.86 K	8.77
26.1 K	8.98
26.34 K	9.19
26.57 K	9.41
26.83 K	9.6
27.09 K	9.8
27.35 K	9.96
27.6 K	10.2
27.83 K	10.4
28.07 K	10.7
28.33 K	10.8
28.59 K	10.7
28.92 K	11.3
29.29 K	11.6
29.83 K	12.1
30 K	12.33
30.39 K	12.6
30.99 K	13.1
31.6 K	13.6
32.23 K	14.1
32.89 K	14.7
33.56 K	15.3
34.26 K	15.9
34.97 K	16.5
35.7 K	17.1
36.44 K	17.8
37.19 K	18.4
37.95 K	19.1
38.72 K	19.8
39.5 K	20.4
40 K	21.08
40.3 K	21.1
41.1 K	21.8
41.92 K	22.5
42.76 K	23.2
43.61 K	24
44.48 K	24.7
45.36 K	25.5
46.27 K	26.2
47.24 K	26.9
48.19 K	27.7
49.16 K	28.5
50 K	29.66
50.15 K	29.4
51.15 K	30.2
52.16 K	31
53.16 K	31.8
54.16 K	32.6
55.16 K	33.5
56.16 K	34.3
57.16 K	35.1
58.15 K	35.9
59.14 K	36.7
60 K	37.42
60.13 K	37.4
61.12 K	38.2
62.11 K	39
63.1 K	39.7
64.09 K	40.5
65.08 K	41.3
66.07 K	42
67.07 K	42.8
68.06 K	43.6
69.05 K	44.3
70 K	44.66
70.05 K	45
71.04 K	45.8
72.03 K	46.6
73.03 K	47.3
74.02 K	47.8
75.02 K	48.6
76.02 K	49.2
77.02 K	49.9
78.02 K	50.6
79.01 K	50.7
80 K	51.2
80.01 K	51.5
80.29 K	51
81.69 K	51.5
82.49 K	52
83.31 K	52.5
84.14 K	53.1
84.98 K	53.7
85.82 K	54.2
86.68 K	54.7
87.55 K	55.3
88.43 K	55.8
89.31 K	56.3
90 K	57.18
90.21 K	56.9
91.11 K	57.4
92.02 K	58
92.94 K	58.5
93.87 K	59.1
94.81 K	59.7
95.75 K	60.2
96.71 K	60.8
97.68 K	61.3
98.65 K	61.9
99.64 K	62.4
100 K	62.7
100.64 K	63
101.64 K	63.6
102.66 K	64.1
103.69 K	64.7
104.72 K	65.2
105.77 K	65.8
106.83 K	66.4
107.9 K	66.9
108.97 K	67.4
110.06 K	67.7
111.16 K	68.5
112.27 K	69.1
113.4 K	69.7
114.53 K	70.2
115.68 K	70.8
116.83 K	71.4
118 K	71.9
119.18 K	72.4
120 K	72.61
120.37 K	73
121.58 K	73.5
122.79 K	74
124.02 K	74.6
125.26 K	75.1
126.51 K	75.7
127.77 K	76.2
129.05 K	76.8
130.34 K	77.3
131.64 K	77.9
132.96 K	78.4
134.29 K	78.9
135.63 K	79.4
136.99 K	79.9
138.36 K	80.4
139.74 K	80.9
140 K	81.2
141.54 K	81.6
142.95 K	82.2
144.38 K	82.8
145.83 K	83.2
147.28 K	83.8
148.76 K	84.5
150.25 K	85
151.75 K	85.6
153.27 K	86.1
154.8 K	86.6
156.34 K	87.3
157.91 K	87.8
159.49 K	88.2
160 K	88.53
161.08 K	88.9
162.69 K	89.3
164.32 K	89.9
165.96 K	90.3
167.62 K	90.8
169.3 K	91.2
170.99 K	91.8
172.7 K	92.4
174.43 K	92.9
176.17 K	93.5
177.93 K	94
179.71 K	94.3
180 K	94.63
181.5 K	95.2
183.31 K	95.3
185.15 K	95.9
187 K	96.4
188.86 K	97.1
190.75 K	97.8
192.65 K	98
194.58 K	98.2
196.52 K	98.2
198.48 K	98.6
200 K	99.59
200.46 K	99.2
202.45 K	99.5
204.43 K	100
206.42 K	101
208.4 K	101.1
210.39 K	101.6
212.37 K	101.7
214.35 K	102.5
216.33 K	102.8
218.31 K	103.5
220 K	103.6
220.3 K	103.8
222.28 K	103.6
224.26 K	104.2
226.23 K	105.1
228.22 K	105
230.2 K	105.5
232.17 K	106.2
234.15 K	106.2
236.14 K	106.1
238.1 K	106.8
240 K	106.9
240.08 K	106.6
242.05 K	107.3
244.02 K	107.1
245.99 K	107.7
249.95 K	108.3
251.89 K	108.9
253.89 K	109.5
255.86 K	109.5
257.84 K	109.2
259.8 K	110.2
260 K	109.9
261.77 K	109.7
263.74 K	110.1
267.67 K	111
269.63 K	110.4
271.61 K	110.6
273.57 K	111.4
275.53 K	111.7
277.5 K	111.9
279.46 K	112.8
280 K	112.6
281.42 K	112.8
283.39 K	112
285.35 K	114
287.3 K	114.2
289.27 K	113.1
291.22 K	113.8
293.17 K	114.3
294.05 K	113.5
297.48 K	114.1
298.15 K	114.8
299.16 K	114.5
300 K	114.9
